Data published in PubChem BioAssay (NCI).
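GI50 marks 50% less growth. TGI: total growth inhibition.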

Columns and labels:
Experiment in all cases: growth of human tumour cells (NCI), 384-well format
RPMI-8226 leukemia = tested on: RPMI-8226 leukemia
A549 NSCLC = tested on: A549 NSCLC
T-47D breast = tested on: T-47D breast
NCI-H460 NSCLC = tested on: NCI-H460 NSCLC
NCI-H23 lung = tested on: NCI-H23 lung
TK-10 renal = tested on: TK-10 renal
SR leukemia = tested on: SR leukemia
MDA-MB-468 breast = tested on: MDA-MB-468 breast
SF-268 CNS = tested on: SF-268 CNS
HL-60(TB) leukemia = tested on: HL-60(TB) leukemia
PC-3 prostate = tested on: PC-3 prostate
NCI-H226 lung = tested on: NCI-H226 lung
CCRF-CEM leukemia = tested on: CCRF-CEM leukemia

Structure (SMILES): CC(O)[C@H](NC(=O)N[C@@H](CC(N)=O)c1nc(N2CCNCC2)no1)C(=O)O (stereo partly specified)
- GI50 (RPMI-8226 leukemia): > 100 µM
- TGI (RPMI-8226 leukemia): > 100 µM
- GI50 (A549 NSCLC): > 100 µM
- TGI (A549 NSCLC): > 100 µM
- GI50 (T-47D breast): > 100 µM
- TGI (T-47D breast): > 100 µM
- GI50 (NCI-H460 NSCLC): > 100 µM
- TGI (NCI-H460 NSCLC): > 100 µM
- GI50 (NCI-H23 lung): > 100 µM
- TGI (NCI-H23 lung): > 100 µM
- GI50 (TK-10 renal): > 100 µM
- TGI (TK-10 renal): > 100 µM
- GI50 (SR leukemia): > 100 µM
- TGI (SR leukemia): > 100 µM
- GI50 (MDA-MB-468 breast): > 100 µM
- TGI (MDA-MB-468 breast): > 100 µM
- GI50 (SF-268 CNS): > 100 µM
- TGI (SF-268 CNS): > 100 µM
- GI50 (HL-60(TB) leukemia): > 100 µM
- TGI (HL-60(TB) leukemia): > 100 µM
- GI50 (PC-3 prostate): > 100 µM
- TGI (PC-3 prostate): > 100 µM
- GI50 (NCI-H226 lung): > 100 µM
- TGI (NCI-H226 lung): > 100 µM
- GI50 (CCRF-CEM leukemia): > 100 µM
- TGI (CCRF-CEM leukemia): > 100 µM
